Where two headings read alike, the source gives them in different places.
How the values were obtained:
[1] = Acute toxicity, SWISS mouse (median lethal dose); details: in vivo, read-out: Median lethan dose
Description: (§1) The toxicities which are acute with the SWISS mouse and chronic with the albino rat are determined according to the usual standardized protocols.

[2] = test system: rat; details: Merck Index 10th edition; cited from earlier work
[3] = test system: fibroblasts; details: in words; cited from earlier work
[4] = test system: herpes virus; details: in words; cited from earlier work
[5] = test system: TG 180 strain; assay: In vivo antitumoral test with the mouse, first experiment; design: species or system SWISS mouse; details: for number of survivors (tumor +) / number of survivors (tumor -) / number of animals with tumors: 15 mice per batch; for number of survivors (tumor +) / number of survivors (tumor -): compounds I to V alternately with CP and interferon; for number of animals with tumors: compounds I to V alternately with CP and interferon (0.5 ml of 8 mmolar solution), three weeks; for antitumoral therapeutic efficiency: with respect to reference batches No. 1, 2, 3 and 4, in words
Description: (3) In vivo antitumoral tests with the mouse.
The studies on the antitumoral properties have been carried out with the mouse according the CHANY and CERRUTI protocol (Int. J. Cancer, 1982, 30, 489) on the hereabove compounds I to V.
In order to obtain a tumor or tumors with mice, one uses the TG 180 strain (injection via the i.p. route of 10^6 cells for a male mouse of 25 g and of 0.1 ml of a solution of Corynbacterium Parvum Merieux (CP)).
This experiment bears on 135 SWISS mice devided into 9 batches of 15 mice each. After injection on day D0 of the TG 180 and CP cells, one proceeds in the following manner:
The reference batch No. 1 is treated every day with an injection of placebo.
The reference batch No. 2 is treated every day with an injection of CP (0.1 ml).
The reference batch No. 3 is treated every day with an injection of interferon EAT-113, 0.5 ml.
The reference batch No. 4 is treated every day alternately with CP and with interferon EAT-113, with the same doses as hereabove.
The experimental batches are treated, alternately on day D+1 with the compound according to the invention (0.5 ml of an 8 mmolar solution of a compound I to V), on day D+2 with interferon EAT-113, on day D+3 with CP, and this for three weeks.
The number of survivors is noted, as well as the presence or not of a tumor (tumor+ or tumor-) in the survivors five weeks after day D0.

[6] = test system: TG 180 strain; assay: as above; design: species or system SWISS mouse; details: 15 mice per batch; compounds I to V alternately with CP and interferon
[7] = Solubilizing of the products for the in vivo antitumoral test; assay type: physicochemical; details: explanation for the small number of survivors; in words
[8] = test system: man; details: massive dose; Brazier et al; in words; cited from earlier work
[9] = test system: TG 180 strain; details: mouse; cited from earlier work
[10] = test system: TG 180 strain; assay: In vivo antitumoral test with the mouse, second experiment (dose effect)
[11] = rabbit, i.v. 0.12 g/kg, t=60 min; cited from earlier work
[12] = test system: rat; assay: Lethality in the rat; assay type: in vivo; details: administration of 1.12 g/kg to the rat
Description: as §1

[13] = Solubility in water; assay type: physicochemical
[14] = test system: neoplasic mammary cells (strain NCF 410); assay: In vitro action on neoplasic mammary cells; assay type: cell-based; details: association with interferon EAT-113; in words
[15] = test system: Herpes hominis type II virus; details: in vivo, with interferon EAT-113; in words
[16] = test system: cells infected by the murine AIDS TR-26 virus; assay: In vitro action on cells infected by murine AIDS virus; assay type: cell-based; details: in words

Row | Compound | LD50 ([1]; ip) [mg/kg] | LD50 ([1]; oral route) [mg/kg] | number of survivors (tumor +) [5] | number of survivors (tumor -) [5] | number of animals with tumors [5] | number of survivors after 6 weeks [6] | also measured
1 | CCCC(=O)OCC1COC(C)(C)O1 (centres unmarked) [VIII, O-n-butanoyl-1-isopropylidene-2,3-glyceryl] | 5400 ± 300 | > 8000 |  |  |  |  | 
2 | CCCCCCCCCCCCCCCC(=O)OCC(COC(=O)CCC)OC(=O)CCC (centres unmarked) [XI, di-O-butanoyl-2,3 O-palmitoyl-1-glyceryl] | > 8000 | > 8000 |  |  |  |  | 
3 | CC(C)=O [acetone] |  |  |  |  |  |  | median lethal dose p.o. [2]: 10.7 mL/kg
4 | CCCC(=O)[O-].[Na+] [sodium n-butyrate] |  |  |  |  |  |  | inhibiting actions on the growth of fibroblasts [3]: interesting inhibiting actions on the growth of fibroblasts; antiviral actions [4]: antiviral actions of sodium butyrate have also been characterized for the herpes virus
5 | CCCC(=O)OC[C@@H](OC(=O)CCC)[C@H]1O[C@@H]2OC(C)(C)O[C@@H]2[C@H]1OC(=O)CCC [IV, tri-O-butanoyl 3,5,6-O-isopropylidene-1,2 α-D-glucofuranose] | > 8000 | > 8000 | 0 | 3 | 13 | 3 | solubilizing [7]: difficulties for solubilizing these products
6 | CCCC(=O)OC[C@H]1OC(OC(=O)CCC)[C@H](OC(=O)CCC)[C@@H](OC(=O)CCC)[C@H]1OC(=O)CCC (stereo partly drawn) [VI, penta O-n-butanoyl-1,2,3,4,6 D-galactopyranose] | > 8000 | > 8000 |  |  |  |  | 
7 | CCCC(=O)O [arginine n-butyrate] |  |  |  |  |  |  | side effects in man [8]: side effects in man, of the hyperammoniemy type with a reduction of the insulin secretion and disturbances of the urea cycle and of glucose metabolism; optimal dose advocated [9]: 14 mg of butyric acid; surviving mice after 100 days ([10]; association of CP plus arginine butyrate without interferon): 8 mice amongst 45; therapeutic efficiency ([10]; association of CP plus arginine butyrate without interferon, in words): low therapeutic efficiency; n-butyric acid present in serum [11]: 0 mmol/L
8 | CCCC(=O)OC[C@@H](O)[C@H]1O[C@@H]2OC(C)(C)O[C@@H]2[C@H]1O [III, O-butanoyl-6-O-isopropylidene-1,2α-D-glucofuranose] | 3000 ± 350 | > 8000 | 3 | 8 | 7 | 11 | antitumoral therapeutic efficiency [5]: very good antitumoral therapeutic efficiency
9 | CCCC(=O)OC[C@H]1OC(OC(=O)CCC)[C@H](OC(=O)CCC)[C@@H](OC(=O)CCC)[C@@H]1OC(=O)CCC (stereo partly drawn) [VII, penta- O-n-butanoyl-1,2,3,4,6 D-glucopyranose] | > 8000 | > 8000 |  |  |  |  | 
10 | CCCCCCCCCCCCCCCC(=O)OCC(COC(=O)CCC)OC(=O)CCCCCCCCCCCCCCC (centres unmarked) [X, O-butanoyl-3-di-O-palmitoyl-1,2 glyceryl] | > 2000 | > 6000 |  |  |  |  | 
11 | CCCC(=O)OC[C@H]1O[C@@H]2OC(C)(C)O[C@@H]2[C@H]2OC(C)(C)O[C@H]21 [V, O-n-butanoyl-6 di-O-isopropylidene-1,2:3,4α-D-galactopyranose] | 2500 ± 400 | > 8000 | 0 | 3 | 12 | 3 | solubilizing [7]: difficulties for solubilizing these products
12 | CCCC(=O)O[C@@H]1[C@H]2OC(C)(C)O[C@H]2O[C@@H]1[C@H]1COC(C)(C)O1 [Compound I, O-butanoyl-3-di-O-isopropylidene 1,2: 5,6 α-D-glucofuranose] | 1750 ± 390 | > 8000 | 3 | 7 | 9 | 10 | lethality [12]: does not cause any lethality; antitumoral therapeutic efficiency [5]: very good antitumoral therapeutic efficiency; solubility in water ([13]; in words): slightly soluble in water
13 | CCCC(=O)O[C@@H]1[C@H]2OC(C)(C)O[C@H]2O[C@@H]1[C@H](O)CO [Compound II] | 4200 ± 400 | > 8000 | 0 | 9 | 10 | 9 | in vitro action compared with arginine butyrate and interferon EAT-113 [14]: stronger than the association of arginine butyrate and interferon EAT-113; survival after 100 days ([10]; administered alternately with CP and interferon, whatever the concentration between 0.25 and 50 mmol/l): 30 mice amongst 45; number of surviving mice after 100 days ([10]; alternately with CP, interferon omitted, average, 0.5 to 50 millimoles/l): 20 mice amongst 45; therapeutic results of the association with CP alone compared with interferon, CP plus arginine butyrate ([10]; compound II plus CP, no interferon, in words): as good as the association of interferon with CP plus arginine butyrate; dose sufficient for obtaining the maximum therapeutic effect ([10]; mouse): ≤ 0.44 mg of potential n-butyric acid per kilogramme of mouse; potentialization of the action of interferon EAT-113 [15]: potentialization of the action of interferon EAT-113 on the Herpes hominis type II virus; antitumoral therapeutic efficiency [5]: very good antitumoral therapeutic efficiency; solubility ([13]; water, room temperature): > 100 mg/mL; action in vitro compared with arginine butyrate [16]: stronger action in vitro on the cells infected by the murine AIDS TR-26 virus than the arginine butyrate
14 | CCCC(=O)OCC(O)CO (centres unmarked) [IX, O-n-butanoyl-1, propane diol-2,3] | 2250 ± 230 | > 8000 |  |  |  |  | 

From patent US5185436A, “Esters of normal butyric acid and their use as pharmaceuticals” (priority 1990, dated 1993)
